The results in this text go back to patent publication US7517881B2, “Triazine derivatives, their preparation and therapeutic application thereof” (Aventis Pharma S.A., priority 2005, dated 2009).

In the assay the target is T1, nicotinic receptors containing the α7 subunit (Rattus norvegicus, UniProt Q05941).
T1 construct: displace the [^3H]-MLA bond on the rat hippocampus membranes; from tissue; host or cells: hippocampus of female Sprague-Dawley rats (membrane preparation)
The assay is described as follows: binding to nicotinic receptors containing the α7 subunit, competition versus [3H]-methyllycaconitine on rat hippocampus membranes. The conditions noted are these: apparent affinity constant by Cheng and Prusoff, displacement of 5 nM [3H]-MLA, 2 hours at about 20° C. As for the experimental part: The compounds of the invention were tested for their ability to bind the nicotinic receptors containing the α7 subunit using a test of binding to preparations of rat brain membranes according to the methods described hereunder:
Frozen specimens of hippocampus from the brain of female Sprague-Dawley rats were stored at −20° C. until used. The hippocampi from 10 rats were combined and homogenized using a pulverizer of the Polytron type in 10 volumes of an ice-cooled buffer with the following composition: KCl (11 mM); KH2PO4 (6 mM); NaCl (137 mM); Na2HPO4 (8 mM); HEPES (20 mM); iodoacetamide (5 mM); EDTA (1.5 mM); PMSF (0.1 mM). The pH was adjusted to 7.4 with NaOH. […]
The binding of the compounds of the invention for receptors containing the α7 subunit was measured by competition versus [^3H]-methyllycaconitine ([^3H]-MLA), a radiolabeled tracer which recognizes the α7 receptors (Davies et al., Neuropharmacology 1999, 38, 679-690) according to conventional methods adapted to the format of 96-well plates. The ability of the compounds of the invention to displace the [^3H]-MLA bond on the rat hippocampus membranes was determined in duplicate after incubation for 2 hours at a temperature close to 20° C. […] The non-specific binding was determined in specific wells containing 10 μM of non-radiolabeled MLA. […]

T1 sequence (Q05941 23-502): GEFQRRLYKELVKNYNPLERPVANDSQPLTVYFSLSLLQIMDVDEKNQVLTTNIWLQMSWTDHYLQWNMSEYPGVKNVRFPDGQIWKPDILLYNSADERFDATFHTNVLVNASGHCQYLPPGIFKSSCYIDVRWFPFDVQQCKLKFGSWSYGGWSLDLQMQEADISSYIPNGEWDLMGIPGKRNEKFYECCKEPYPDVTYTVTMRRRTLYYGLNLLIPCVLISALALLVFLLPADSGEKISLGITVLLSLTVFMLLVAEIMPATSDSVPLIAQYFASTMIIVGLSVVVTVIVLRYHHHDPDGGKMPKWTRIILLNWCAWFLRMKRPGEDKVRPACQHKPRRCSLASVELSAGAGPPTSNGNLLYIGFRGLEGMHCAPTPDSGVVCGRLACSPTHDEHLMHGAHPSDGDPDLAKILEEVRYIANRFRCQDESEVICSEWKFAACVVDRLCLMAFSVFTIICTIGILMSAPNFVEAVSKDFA

For the compound `CCN(CC)CCCNc1nnc(-c2cn(-c3ccccc3)c3ccccc23)c(=O)[nH]1` [Compound No. 11, 6-(1-phenyl-indol-3-yl)-3-(3-diethylaminopropylamino)-4H-1,2,4-triazin-5-one], the Ki was 0.737 µM.
Take `CCN(CC)CCCNc1nnc(-c2csc3ccccc23)c(=O)[nH]1` [Compound No. 12, 6-(benzothiophen-3-yl)-3-(3-diethylaminopropylamino)-4H-1,2,4-triazin-5-one]: the Ki came out at 0.957 µM.
